Test results taken from US7879863B2, “Aniline derivatives” (Ajinomoto Co., Inc., priority 2004, dated 2011).
Marks after values point to notes of the source that are not given here.

Key:
[1] = tested on: DSS-induced enteritis model; experiment: Efficacy evaluation in DSS-induced enteritis model; assay type: in vivo, female CBA mice; conditions: mice, 5% DSS, relative to non-treatment group = 100%, mean ± standard error
From the text: Efficacy evaluation in DSS-induced enteritis model
The dextran sodium sulfate (DSS)-induced enteritis model was subjected to evaluation by a partly-modified methods of Gastroenterology, 98, 694-702 (1990) and Cytokine, 11, 890-896 (1998). A 5 (w/v) % DSS (manufactured by Sigma, MW 5,000) solution was freely taken by female CBA mice (CHARLES RIVER LABORATORIES JAPAN, INC.) for a given period to induce enteritis. A solution of the test compound adjusted to the objective concentration with a 0.5 (w/v) % tragacanth gum (TG) solution was orally administered at 5 mL/kg. Upon autopsy, the length, weight and the like of the large intestine were evaluated and used as an index of the onset of inflammatory enteritis. As a control, a mouse, to which a 0.5 (w/v) % TG solution was orally administered at 5 mL/kg instead of the test compound, was used. The length and weight of the large intestine are expressed as the relative value when the average value of the non-treatment group is 100%. As a Reference Example, the values obtained by oral administration of a positive control drug, salazosulfapyridine, instead of the test compound are shown. […] For testing the significant difference, Dunnett's t-test was used, and statistic significance as shown by P<0.05 and P<0.01 relative to the TG control group is shown in the Table with * and **, respectively.

[2] = target: T1, human activated tissue kallikrein (Homo sapiens, UniProt P06870); experiment: Measurement of tissue kallikrein inhibitory activity; assay type: biochemical; conditions: activated tissue kallikrein activity (initial rate) inhibited by 50%; substrate D-valyl-L-leucyl-L-arginyl-p-nitroanilide; 37° C.
T1 construct: 6xHis (C); made in house; host or cells: baculovirus / Sf21 insect cells
Procedure: Measurement of tissue kallikrein inhibitory activity
Expression and purification of human activated tissue kallikrein was performed according to the method of Angermann (A. Angermann et al., Eur. J. Biochem., 206, 225-233 (1992)). That is, a gene was prepared by adding 6 residues of histidine to the C-terminal side of human pancreas kallikrein gene (D. Fukuchima et al, Biochemistry, 24, 8037-8043 (1985)), and tissue prokallikrein was expressed by a system using a baculovirus-insect cell (Sf21). Purified human tissue kallikrein was obtained from the culture supernatant by purification using a nickel chelate column (Ni-NTA, QIAGEN K. K.), digestion with TPCK trypsin and further nickel chelate column. To a solution (100 μL) of the human activated tissue kallikrein adjusted to 0.0625 μg/mL with an assay buffer (100 mM tris-hydrochloride buffer (pH 8.4) containing 0.2M NaCl, 0.02% Tween 20, and 0.1% PEG 6000) was added an assay buffer (containing 2% DMSO) solution (50 μL) of the test compound adjusted to the objective concentration, and the mixture was incubated at 37° C. for 10 minutes (min=minutes). Then, a 4 mM solution (50 μL) of D-valyl-L-leucyl-L-arginyl-p-nitroanilide hydrochloride (BACHEM AG) adjusted with the assay buffer was added, the absorbance was measured and the reaction rate was determined. As a control, a DMSO solution (50 μL) was added instead of the solution of the test compound. Absorbance was measured at a wavelength of 405 nm at 60 second intervals for 90 min using a Benchmark Plus Microplate Reader (BIO RAD). The negative logarithm value (abbreviated as pIC50) of the test compound concentration when the activated tissue kallikrein activity (initial rate) was inhibited by 50% without addition of the test compound was used as an index of the activated tissue kallikrein inhibitory activity.

[3] = tested on: acetic acid writhing model; experiment: Efficacy evaluation in acetic acid writhing model; assay type: in vivo, male ICR mice; conditions: mice, writhing number 5 to 20 min after 0.9% acetic acid i.p., mean ± standard error
Procedure: Efficacy evaluation in acetic acid writhing model
The acetic acid writhing model was subjected to evaluation according to the method of European Journal of Pharmacology, 352, 47-52 (1998). To be specific, a solution of the test compound adjusted to the objective concentration with a 0.5 (w/v) % tragacanth gum solution was orally administered to male ICR mice (CHARLES RIVER LABORATORIES JAPAN, INC.) at 5 mL/kg, and a 0.9% acetic acid solution adjusted with a physiological saline was intraperitoneally administered 60 min later at 5 mL/kg. The number of writhing for 15 min from 5 min to 20 min after administration of a 0.9% acetic acid solution was counted and taken as the writhing number of the test compound. A mouse, to which a 0.5 (w/v) % tragacanth gum (TG) solution was orally administered at 5 ml/kg instead of the test compound, was used as a control. The suppression rate (%) was calculated by subtracting the relative value of each mouse from the relative value when the average value of the control group is 100%. As a Reference Example, the value obtained by oral administration of a positive control drug, indomethacin, instead of the test compound is shown. […] For testing the significant difference, Dunnett's t-test was used, and statistic significance as shown by P<0.05 and P<0.01 relative to the TG control group is shown in the Table with * and **, respectively.

T1 sequence (P06870 25-262): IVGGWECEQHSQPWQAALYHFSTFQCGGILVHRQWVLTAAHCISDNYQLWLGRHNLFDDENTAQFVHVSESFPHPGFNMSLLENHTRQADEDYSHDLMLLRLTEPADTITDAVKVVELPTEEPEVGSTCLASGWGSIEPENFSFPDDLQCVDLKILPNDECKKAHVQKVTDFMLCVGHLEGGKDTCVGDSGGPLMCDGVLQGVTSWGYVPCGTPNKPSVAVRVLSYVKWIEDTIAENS

CCN1CCC(O)c2cc(C(F)(F)F)ccc21 (centres unmarked) [Compound E-6]
large intestine length (%) ([1]; 10 mg/kg oral): 85.2 ± 2.4** % | large intestine weight (%) ([1]; 10 mg/kg oral): 117.5 ± 5.1** % | large intestine length (%) ([1]; 30 mg/kg oral): 87.9 ± 2.0** % | large intestine weight (%) ([1]; 30 mg/kg oral): 110.7 ± 4.1** % | IC50 [2]: 251 nM | suppression rate (%) ([3]; 3 mg/kg oral): 58.7 ± 7.0** % | suppression rate (%) ([3]; 10 mg/kg oral): 58.7 ± 5.8** % | suppression rate (%) ([3]; 30 mg/kg oral): 64.9 ± 8.3** %
